Test results from BigSolDB 2.1.

CNc1nc(C)nc(OC)n1
solubility (mole fraction)
Conditions	278.15 K	283.15 K	288.15 K	293.15 K	298.15 K	303.15 K	308.15 K	313.15 K	318.15 K	323.15 K
in DMF	0.199	0.221	0.245	0.269	0.298	0.324	0.357	0.386	0.416	0.456
in ethanol	0.0496	0.057	0.0655	0.0737	0.0818	0.0914	0.101	0.111	0.123	0.136
in ethylene glycol	0.0208	0.0236	0.0273	0.0309	0.0349	0.039	0.0437	0.0483	0.0534	0.0597
in methanol	0.0666	0.0766	0.0874	0.0983	0.11	0.123	0.138	0.152	0.168	0.185
in water	2.58e-06	3.05e-06	3.53e-06	4.12e-06	4.73e-06	5.33e-06	5.99e-06	6.71e-06	7.57e-06	8.49e-06
